From patent publication US10533010B2, “Substituted indole Mcl-1 inhibitors” (Vanderbilt University, priority 2014, dated 2020)

Target: recombinant Mcl-1 (residues 172-327) (Homo sapiens (Human), UniProt Q07820)
Experiment: Fluorescence polarization anisotropy competition assay (FITC-Bak or FITC-Bim BH3 peptide) with Mcl-1
Format: binding
Conditions: Table 2; Ki bins given in nM; FITC-Bak or FITC-Bim peptide competition; Ki converted from IC50; read-out: Ki for Inhibition of Mcl-1

recombinant Mcl-1 (residues 172-327), sequence (Q07820 172-327): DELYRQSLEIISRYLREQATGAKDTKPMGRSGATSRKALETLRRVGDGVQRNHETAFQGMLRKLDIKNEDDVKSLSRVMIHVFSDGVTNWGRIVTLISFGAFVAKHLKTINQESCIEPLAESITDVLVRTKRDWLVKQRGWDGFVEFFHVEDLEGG

| SMILES | Ki [nM] |
| --- | --- |
| Cc1cc(OCCCc2c(C(=O)NCc3cc(C(=O)O)cc(N4CCN(C(=O)CC(C)C)CC4)n3)[nH]c3c(-c4c(C)nn(C)c4C)c(Cl)ccc23)cc(C)c1Cl [I-284, 2-((6-chloro-3-(3-(4-chloro-3,5-dimethylphenoxy)propyl)-7-(1,3,5-trimethyl-1H-pyrazol-4-yl)-1H-indole-2-carboxamido)methyl)-6-(4-(3-methylbutanoyl)piperazin-1-yl)isonicotinic acid] | < 50 |
| Cc1cc(OCCCc2c3n(c4c(-c5c(C)nn(C)c5C)c(Cl)ccc24)[C@H](C)CN(c2ccc(C(=O)O)cc2)C3=O)cc(C)c1Cl [I-172, (R)-4-(7-chloro-10-(3-(4-chloro-3,5-dimethylphenoxy)propyl)-4-methyl-1-oxo-6-(1,3,5-trimethyl-1H-pyrazol-4-yl)-3,4-dihydropyrazino[1,2-a]indol-2(1H)-yl)benzoic acid] | < 50 |
| Cc1cc(OCCCc2c(C(=O)NCc3ccc(C(=O)NCc4ccccc4C(F)(F)F)o3)[nH]c3ccccc23)cc(C)c1Cl [I-58, 3-(3-(4-chloro-3,5-dimethylphenoxy)propyl)-N-((5-((2-(trifluoromethyl)benzyl)carbamoyl)furan-2-yl)methyl)-1H-indole-2-carboxamide] | 101 to 299 |
| Cc1cc(OCCCc2c3n(c4c(-c5c(C)nn(C)c5C)c(Cl)ccc24)CCCN(c2cc(C(=O)O)cc(N(C)CCN(C)C)c2)C3=O)cc(C)c1Cl [I-211, 3-(8-chloro-11-(3-(4-chloro-3,5-dimethylphenoxy)propyl)-1-oxo-7-(1,3,5-trimethyl-1H-pyrazol-4-yl)-4,5-dihydro-1H-[1,4]diazepino[1,2-a]indol-2(3H)-yl)-5-((2-(dimethylamino)ethyl)(methyl)amino)benzoic acid] | < 50 |
| Cc1cc(OCCCc2c(C(=O)NCc3cccc(C(=O)O)c3)n(CCN3CCOCC3)c3c(-c4c(C)nn(C)c4C)c(Cl)ccc23)cc(C)c1Cl [I-372, 3-((6-chloro-3-(3-(4-chloro-3,5-dimethylphenoxy)propyl)-1-(2-morpholinoethyl)-7-(1,3,5-trimethyl-1H-pyrazol-4-yl)-1H-indole-2-carboxamido)methyl)benzoic acid] | < 50 |
| Cc1cc(OCCCc2c(C(=O)Nc3ccc(C(=O)NS(=O)(=O)c4ccc([N+](=O)[O-])cc4)cc3)[nH]c3c(-c4cccnc4C)cccc23)cc(C)c1Cl [I-69, 3-(3-(4-chloro-3,5-dimethylphenoxy)propyl)-7-(2-methylpyridin-3-yl)-N-(4-(((4-nitrophenyl)sulfonyl)carbamoyl)phenyl)-1H-indole-2-carboxamide] | 101 to 299 |
| Cc1cc(OCCCc2c3n(c4c(-c5c(C)nn(C)c5C)c(Cl)ccc24)CCN(c2ccc(C(=O)O)cc2)C3=O)cc(C)c1Cl [I-176, 4-(7-chloro-10-(3-(4-chloro-3,5-dimethylphenoxy)propyl)-1-oxo-6-(1,3,5-trimethyl-1H-pyrazol-4-yl)-3,4-dihydropyrazino[1,2-a]indol-2(1H)-yl)benzoic acid] | < 50 |
| Cc1cc(OCCCc2c3n(c4c(-c5c(C)nn(C)c5C)c(Cl)ccc24)CCCN(Cc2cc(C(=O)O)cc(OCCCC(C)C)n2)C3=O)cc(C)c1Cl [I-303, 2-((8-chloro-11-(3-(4-chloro-3,5-dimethylphenoxy)propyl)-1-oxo-7-(1,3,5-trimethyl-1H-pyrazol-4-yl)-4,5-dihydro-1H-[1,4]diazepino[1,2-a]indol-2(3H)-yl)methyl)-6-((4-methylpentyl)oxy)isonicotinic acid] | < 50 |
| Cc1cc(OCCCc2c(C(=O)N3CCN(c4ccc(C(=O)O)cc4)CC3)n(Cc3ccccn3)c3c(-c4c(C)nn(C)c4C)c(Cl)ccc23)cc(C)c1Cl [I-341, 4-(4-(6-chloro-3-(3-(4-chloro-3,5-dimethylphenoxy)propyl)-1-(pyridin-2-ylmethyl)-7-(1,3,5-trimethyl-1H-pyrazol-4-yl)-1H-indole-2-carbonyl)piperazin-1-yl)benzoic acid] | < 50 |
| Cc1cc(OCCCc2c(C(=O)NCc3cc(C(=O)O)c(CN4CCc5ccccc5C4)o3)[nH]c3c(-c4c(C)nn(C)c4C)cccc23)cc(C)c1Cl [I-293, 5-((3-(3-(4-chloro-3,5-dimethylphenoxy)propyl)-7-(1,3,5-trimethyl-1H-pyrazol-4-yl)-1H-indole-2-carboxamido)methyl)-2-((3,4-dihydroisoquinolin-2(1H)-yl)methyl)furan-3-carboxylic acid] | < 50 |
| Cc1cc(OCCCc2c3n(c4c(-c5c(C)nn(C)c5C)c(Cl)ccc24)[C@@H](C)CN(Cc2ccc(C(=O)O)cn2)C3=O)cc(C)c1Cl [I-149, (S)-6-((7-chloro-10-(3-(4-chloro-3,5-dimethylphenoxy)propyl)-4-methyl-1-oxo-6-(1,3,5-trimethyl-1H-pyrazol-4-yl)-3,4-dihydropyrazino[1,2-a]indol-2(1H)-yl)methyl)nicotinic acid] | < 50 |
| Cc1cc(OCCCc2c(C(=O)NCCS(=O)(=O)NC(=O)Cc3ccc(Br)cc3)[nH]c3ccccc23)cc(C)c1Cl [I-53, N-(2-(N-(2-(4-bromophenyl)acetyl)sulfamoyl)ethyl)-3-(3-(4-chloro-3,5-dimethylphenoxy)propyl)-1H-indole-2-carboxamide] | 301 to 500 |
| Cc1cc(OCCCc2c(C(=O)NCc3ccc(C(=O)NS(C)(=O)=O)o3)[nH]c3ccccc23)cc(C)c1Cl [I-59, 3-(3-(4-chloro-3,5-dimethylphenoxy)propyl)-N-((5-((methylsulfonyl)carbamoyl)furan-2-yl)methyl)-1H-indole-2-carboxamide] | 101 to 299 |
| Cc1cc(OCCCc2c(C(=O)NCCC(=O)NS(=O)(=O)c3ccc([N+](=O)[O-])cc3)[nH]c3ccccc23)cc(C)c1Cl [I-22, 3-(3-(4-chloro-3,5-dimethylphenoxy)propyl)-N-(3-((4-nitrophenyl)sulfonamido)-3-oxopropyl)-1H-indole-2-carboxamide] | 101 to 299 |
| Cc1cc(OCCCc2c3n(c4c(-c5c(C)nn(C)c5C)cccc24)CCCN(Cc2cc(C(=O)O)n(Cc4ccccc4)c2)C3=O)cc(C)c1Cl [I-77, 1-benzyl-4-((1-(3-(4-chloro-3,5-dimethylphenoxy)propyl)-1-oxo-7-(1,3,5-trimethyl-1H-pyrazol-4-yl)-4,5-dihydro-1H-[1,4]diazepino[1,2-a]indol-2(3H)-yl)methyl)-1H-pyrrole-2-carboxylic acid] | 51 to 100 |
| Cc1cc(OCCCc2c3n(c4c(-c5c(C)nn(C)c5C)c(Cl)ccc24)CCCN(c2cc(Cl)cc(C(=O)O)c2)C3=O)cc(C)c1Cl [I-221, 3-chloro-5-(8-chloro-11-(3-(4-chloro-3,5-dimethylphenoxy)propyl)-1-oxo-7-(1,3,5-trimethyl-1H-pyrazol-4-yl)-4,5-dihydro-1H-[1,4]diazepino[1,2-a]indol-2(3H)-yl)benzoic acid] | < 50 |
| Cc1cc(OCCCc2c3n(c4c(-c5c(C)nn(C)c5C)c(Cl)ccc24)C[C@@H](C)N(c2ccc(C(=O)O)cc2)C3=O)cc(C)c1Cl [I-156, (R)-4-(7-chloro-10-(3-(4-chloro-3,5-dimethylphenoxy)propyl)-3-methyl-1-oxo-6-(1,3,5-trimethyl-1H-pyrazol-4-yl)-3,4-dihydropyrazino[1,2-a]indol-2(1H)-yl)benzoic acid] | < 50 |
| Cc1cc(OCCCc2c(C(=O)NCc3ccc(C(=O)N[C@@H](Cc4ccccc4)C(=O)O)o3)[nH]c3c(-c4c(C)nn(C)c4C)cccc23)cc(C)c1Cl [I-271, (5-((3-(3-(4-chloro-3,5-dimethylphenoxy)propyl)-7-(1,3,5-trimethyl-1H-pyrazol-4-yl)-1H-indole-2-carboxamido)methyl)furan-2-carbonyl)-L-phenylalanine] | < 50 |
| Cc1cc(OCCCc2c3n(c4c(-c5c(C)nn(C)c5C)cccc24)CCCN(Cc2cc(C(=O)O)cc(N4CCCC4)c2)C3=O)cc(C)c1Cl [I-84, 3-((11-(3-(4-chloro-3,5-dimethylphenoxy)propyl)-1-oxo-7-(1,3,5-trimethyl-1H-pyrazol-4-yl)-4,5-dihydro-1H-[1,4]diazepino[1,2-a]indol-2(3H)-yl)methyl)-5-(pyrrolidin-1-yl)benzoic acid] | 101 to 299 |
| Cc1cc(OCCCc2c3n(c4c(-c5c(C)nn(C)c5C)c(Cl)ccc24)CCCN(Cc2ccc(C(=O)NS(=O)(=O)c4ccc(OCc5ccccc5)cc4)cc2)C3=O)cc(C)c1Cl [I-309, N-((4-(benzyloxy)phenyl)sulfonyl)-4-((8-chloro-11-(3-(4-chloro-3,5-dimethylphenoxy)propyl)-1-oxo-7-(1,3,5-trimethyl-1H-pyrazol-4-yl)-4,5-dihydro-1H-[1,4]diazepino[1,2-a]indol-2(3H)-yl)methyl)benzamide] | < 50 |
| Cc1cc(OCCCc2c(C(=O)NCc3cccc(C(=O)O)c3)n(C)c3c(-c4c(C)nn(C)c4C)cccc23)cc(C)c1Cl [I-33, 3-((3-(3-(4-chloro-3,5-dimethylphenoxy)propyl)-1-methyl-7-(1,3,5-trimethyl-1H-pyrazol-4-yl)-1H-indole-2-carboxamido)methyl)benzoic acid] | 51 to 100 |
| Cc1cc(OCCCc2c3n(c4c(-c5c(C)nn(C)c5C)c(Cl)ccc24)CCCN(Cc2cc(CCNC(=O)CC(C)C)cc(C(=O)O)c2)C3=O)cc(C)c1Cl [I-307, 3-((8-chloro-11-(3-(4-chloro-3,5-dimethylphenoxy)propyl)-1-oxo-7-(1,3,5-trimethyl-1H-pyrazol-4-yl)-4,5-dihydro-1H-[1,4]diazepino[1,2-a]indol-2(3H)-yl)methyl)-5-(2-(3-methylbutanamido)ethyl)benzoic acid] | < 50 |

Same assay, conditions: Table 2; Ki bins given in μM; FITC-Bak or FITC-Bim peptide competition; Ki converted from IC50; read-out: Ki for Inhibition of Mcl-1

| SMILES | Ki [nM] |
| --- | --- |
| Cc1cc(OCCCc2c(C(=O)N3CCC(NC(=O)OC(C)(C)C)CC3)[nH]c3ccccc23)cc(C)c1Cl [I-48, tert-butyl (1-(3-(3-(4-chloro-3,5-dimethylphenoxy)propyl)-1H-indole-2-carbonyl)piperidin-4-yl)carbamate] | 1000 to 9990 |
| Cc1cc(OCCCc2c(C(=O)NCc3cc(C(=O)NC4Cc5ccccc5C4)cc(NC4Cc5ccccc5C4)n3)[nH]c3c(-c4c(C)nn(C)c4C)cccc23)cc(C)c1Cl [I-278, 3-(3-(4-chloro-3,5-dimethylphenoxy)propyl)-N-((6-((2,3-dihydro-1H-inden-2-yl)amino)-4-((2,3-dihydro-1H-inden-2-yl)carbamoyl)pyridin-2-yl)methyl)-7-(1,3,5-trimethyl-1H-pyrazol-4-yl)-1H-indole-2-carboxamide] | 1000 to 9990 |
